Measurements taken from the supplement of paper PMC11208160.

Test: recombinant UMI read abundance after kanamycin selection (control-corrected) (log10(CPM+1)); higher = more efficient recombination; extreme values may be limits of the assay; sequences stand for … in AGTGCAGAGAAAATCGGCCAGTTTTCTCTGCCTGCAGTCCGCATGCCGTGGGACCCCTTGGGTTCTAACCTGTTGCCTAGATTTATGCAGCGGACTGCCTTTCTCCCAAAGTGATAAACCGG…AGGTTGGTTTCACT; site = the 11-nt donor
Outline: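 Each donor and donor-binding-loop pair was tracked by a 12-nt UMI on a plasmid carrying a promoterless kanamycin gene. With a second plasmid supplying a fixed target and T7-inducible IS621 bridge recombinase, the pool was plated in Escherichia coli on IPTG (0.07 mM) plus kanamycin or unselected. Sequencing of recombinant UMIs across the donor–target junction gave counts expressed as log10(CPM+1) after replicate averaging and control-derived scaling.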
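Note: IS621 bridge recombinase in Escherichia coli cells against a fixed T5 target plasmid.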

| Sequence | recombinant UMI read abundance (log10) |
| --- | --- |
| TTAGTATCATGGACCGGTTTTCCCGGTAATCCGTATTTGAC (site GTAGTATCTGT) | 0.348 |
| TTAGTATCATGGACCGGTTTTCCCGGTAATCCGTATTTGAC (site TTAGTATCTGT) | 2.84 |
| TTAGTCACATGGACCGGTTTTCCCGGTAATCCGTATTTGGG (site TTAGTCACTCC) | 0.0104 |
| TTAGTCGCATGGACCGGTTTTCCCGGTAATCCGTATTTGCG (site ATAGTCGCTCG) | 0.0346 |
| TTAGTCGCATGGACCGGTTTTCCCGGTAATCCGTATTTGCG (site CTAGTCGCTCG) | 0.00978 |
| TTAGTCGCATGGACCGGTTTTCCCGGTAATCCGTATTTGCG (site GTAGTCGCTCG) | 0.00638 |
| TTAGTCGCATGGACCGGTTTTCCCGGTAATCCGTATTTGCG (site TTAGTCGCTCG) | 0.224 |
| TTAGTTACATGGACCGGTTTTCCCGGTAATCCGTATTTGGC (site TTAGTTACTGC) | 0.857 |
| TTATCATCATGGACCGGTTTTCCCGGTAATCCGTATTTGCA (site TTATCATCTTG) | 1.53 |
| TTATCGTCATGGACCGGTTTTCCCGGTAATCCGTATTTGGC (site TTATCGTCTGC) | 1.36 |
| TTATCTGCATGGACCGGTTTTCCCGGTAATCCGTATTTGAT (site TTATCTGCTAT) | 0.557 |
| TTATGCACATGGACCGGTTTTCCCGGTAATCCGTATTTGTA (site ATATGCACTTA) | 0.0128 |
| TTATGCACATGGACCGGTTTTCCCGGTAATCCGTATTTGTA (site CTATGCACTTA) | 0.34 |
| TTATGCACATGGACCGGTTTTCCCGGTAATCCGTATTTGTA (site GTATGCACTTA) | 0.0305 |
| TTATGCACATGGACCGGTTTTCCCGGTAATCCGTATTTGTA (site TTATGCACTTA) | 0.769 |
| TTATTCCCATGGACCGGTTTTCCCGGTAATCCGTATTTGCA (site TTATTCCCTTG) | 0 |
| TTCAATGCATGGACCGGTTTTCCCGGTAATCCGTATTTGCA (site TTCAATGCTTG) | 0 |
| TTCAGAGCATGGACCGGTTTTCCCGGTAATCCGTATTTGCC (site TTCAGAGCTGG) | 0 |
| TTCAGCTCATGGACCGGTTTTCCCGGTAATCCGTATTTGGT (site TTCAGCTCTAC) | 0.00826 |
| TTCAGTGCATGGACCGGTTTTCCCGGTAATCCGTATTTGGC (site TTCAGTGCTGC) | 0 |
| TTCATACCATGGACCGGTTTTCCCGGTAATCCGTATTTGCC (site TTCATACCTGG) | 0 |
| TTCCAGACATGGACCGGTTTTCCCGGTAATCCGTATTTGTA (site TTCCAGACTTA) | 0.13 |
| TTCCCGCCATGGACCGGTTTTCCCGGTAATCCGTATTTGTT (site TTCCCGCCTAA) | 0.00311 |
| TTCCGCGCATGGACCGGTTTTCCCGGTAATCCGTATTTGCC (site TTCCGCGCTGG) | 0.632 |
| TTCCTAGCATGGACCGGTTTTCCCGGTAATCCGTATTTGAA (site TTCCTAGCTTT) | 0.0135 |
| TTCCTATCATGGACCGGTTTTCCCGGTAATCCGTATTTGCA (site TTCCTATCTTG) | 1.53 |

| Sequence | recombinant UMI read abundance (log10) |
| --- | --- |
| TTCGAGCCATGGACCGGTTTTCCCGGTAATCCGTATTTGAC (site TTCGAGCCTGT) | 0 |
| TTCGCGGCATGGACCGGTTTTCCCGGTAATCCGTATTTGCT (site TTAGCGGCTAG) | 0.33 |
| TTCGCGGCATGGACCGGTTTTCCCGGTAATCCGTATTTGCT (site TTCGCGGCTAG) | 0.587 |
| TTCGCGGCATGGACCGGTTTTCCCGGTAATCCGTATTTGCT (site TTGGCGGCTAG) | 0.00776 |
| TTCGCGGCATGGACCGGTTTTCCCGGTAATCCGTATTTGCT (site TTTGCGGCTAG) | 0.0106 |
| TTCGCTGCATGGACCGGTTTTCCCGGTAATCCGTATTTGTG (site TTAGCTGCTCA) | 0.018 |
| TTCGCTGCATGGACCGGTTTTCCCGGTAATCCGTATTTGTG (site TTCGCTGCTCA) | 0.0258 |
| TTCGCTGCATGGACCGGTTTTCCCGGTAATCCGTATTTGTG (site TTGGCTGCTCA) | 0.0131 |
| TTCGCTGCATGGACCGGTTTTCCCGGTAATCCGTATTTGTG (site TTTGCTGCTCA) | 0.00847 |
| TTCGTAACATGGACCGGTTTTCCCGGTAATCCGTATTTGAA (site GCTCGGCCTCC) | 0.019 |
| TTCTAGACATGGACCGGTTTTCCCGGTAATCCGTATTTGTT (site TTCTAGACTAA) | 0.0133 |
| TTCTATACATGGACCGGTTTTCCCGGTAATCCGTATTTGAC (site ATCTATACTGT) | 0 |
| TTCTATACATGGACCGGTTTTCCCGGTAATCCGTATTTGAC (site CTCTATACTGT) | 0 |
| TTCTATACATGGACCGGTTTTCCCGGTAATCCGTATTTGAC (site GTCTATACTGT) | 0 |
| TTCTATACATGGACCGGTTTTCCCGGTAATCCGTATTTGAC (site TTCTATACTGT) | 0.00704 |
| TTCTCCACATGGACCGGTTTTCCCGGTAATCCGTATTTGGA (site TTCTCCACTTC) | 0.00322 |
| TTCTCGACATGGACCGGTTTTCCCGGTAATCCGTATTTGTC (site TTCTCGACTGA) | 0 |
| TTCTTAGCATGGACCGGTTTTCCCGGTAATCCGTATTTGTT (site TTCTTAGCTAA) | 0.0119 |
| TTGACCACATGGACCGGTTTTCCCGGTAATCCGTATTTGCC (site TTGACCACTGG) | 1.79 |
| TTGAGCGCATGGACCGGTTTTCCCGGTAATCCGTATTTGCC (site TTGAGCGCTGG) | 1.9 |
| TTGAGGCCATGGACCGGTTTTCCCGGTAATCCGTATTTGAC (site TTGAGGCCTGT) | 0 |
| TTGATAACATGGACCGGTTTTCCCGGTAATCCGTATTTGGG (site TTGATAACTCC) | 0.00616 |
| TTGCATACATGGACCGGTTTTCCCGGTAATCCGTATTTGGA (site TTGCATACTTC) | 0.121 |
| TTGCGCACATGGACCGGTTTTCCCGGTAATCCGTATTTGTG (site TTGCGCACTCA) | 0.0258 |
| TTGGAGGCATGGACCGGTTTTCCCGGTAATCCGTATTTGTG (site ATGGAGGCTCA) | 0.342 |
| TTGGAGGCATGGACCGGTTTTCCCGGTAATCCGTATTTGTG (site CTGGAGGCTCA) | 0.329 |
